The target of series [1] is T1, D-alanyl-D-alanine dipeptidase (Enterococcus faecium, UniProt Q06241).
T1 sequence (Q06241 whole entry): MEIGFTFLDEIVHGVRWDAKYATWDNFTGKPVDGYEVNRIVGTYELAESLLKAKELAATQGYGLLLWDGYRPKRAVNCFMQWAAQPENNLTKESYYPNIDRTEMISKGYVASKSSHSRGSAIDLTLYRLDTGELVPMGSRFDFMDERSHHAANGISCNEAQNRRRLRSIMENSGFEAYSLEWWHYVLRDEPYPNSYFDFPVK
Put plainly: Inhibition of Enterococcus faecium VanX expressed in Escherichia coli BL21 (DE3) cells using D-alanyl-alpha-R-phenylthioglycine as substrate by colorimetric assay.

The nature of series [2]: Cytotoxicity against HEK293 cells after 72 hrs by MTT assay. Format: cell-based. The conditions noted are these: human. (In general: Formazan colour is commonly taken as a measure of viable cells.)
For series [3], the system named is Enterococcus faecium. Put plainly: Antibacterial activity against vancomycin-resistant Enterococcus faecium E12-2 assessed as growth inhibition by checkerboard analysis. Format: functional, organism-based.
For series [4], the system named is Enterococcus faecium. The experiment in a line: Increase in vancomycin sensitivity in vancomycin-resistant Enterococcus faecium E12-2 assessed as reduction in vancomycin MIC at 72 ug/ml by checkerboard analysis. It is filed as functional, organism-based.
In series [5] the test system is Enterococcus faecium. Put plainly: Increase in vancomycin sensitivity in vancomycin-resistant Enterococcus faecium E12-2 assessed as reduction in vancomycin MIC at 212 ug/ml by checkerboard analysis. Format: functional, organism-based.

The values that follow come from ChEMBL document CHEMBL3259752, “Cell permeable vanX inhibitors as vancomycin re-sensitizing agents” (Bioorg Med Chem Lett, 2014).

Structures are written as SMILES. Calls of active or inactive are those of the source. The rule behind the calls is not given here.

As for `CC(C)[C@H](CP(=O)(O)[C@@H](C)N)C(=O)O`, the affinity in series [1], expressed as Ki, was 6.1 µM.
`CC1(C)S[C@@H]2[C@H](NC(=O)[C@H](N)c3ccc(O)cc3)C(=O)N2[C@H]1C(=O)O` [AMOXICILLIN]: half-maximal cytotoxicity in series [2] (CC50 at 72 h) was put at 24 µM.
In the case of `O=C(N[C@@H](C(=O)O)c1ccccc1)c1cccc(=S)n1O`, the inhibition result in series [3] was “inactive”. The Ki – broadly, a measure of affinity in units of concentration, obtained from inhibition or displacement – in series [1] is 2.74 µM. Further, half-maximal cytotoxicity in series [2] (CC50 at 72 h) was put at 64 µM. In addition, the result in series [4] was Active.
In the case of `C[C@@H](NC(=O)c1cccc(=S)n1O)C(=O)O`, the outcome in series [5] was Active. Moreover, in series [3], the inhibition entry was “inactive”. The Ki in series [1] was 6.84 µM. Moreover, in series [2], the CC50 (commonly the concentration that lowers cell viability or growth by half) at 72 h amounted to 76 µM.
Regarding `CN[C@H](CC(C)C)C(=O)N[C@H]1C(=O)N[C@@H](CC(N)=O)C(=O)N[C@H]2C(=O)N[C@H]3C(=O)N[C@H](C(=O)N[C@H](C(=O)O)c4cc(O)cc(O)c4-c4cc3ccc4O)[C@H](O)c3ccc(c(Cl)c3)Oc3cc2cc(c3O[C@@H]2O[C@H](CO)[C@@H](O)[C@H](O)[C@H]2O[C@H]2C[C@](C)(N)[C@H](O)[C@H](C)O2)Oc2ccc(cc2Cl)[C@H]1O` [VANCOMYCIN], in series [2], the CC50 at 72 h is above 100 µM.
On to `C[C@H](CP(=O)(O)[C@@H](C)N)C(=O)O`, for which, in series [1], the Ki was 1.5 µM.
Regarding `C[C@@H](N)P(=O)(O)C[C@H](C(=O)O)c1ccccc1`, the affinity in series [1] corresponds to a Ki of 2.9 µM.
